According to ChEMBL document CHEMBL1147400, “Novel antimitotic dibenzocyclo-octadiene lignan constituents of the stem bark of Steganotaenia araliacea” (1993):
≈ marks a conversion by molar mass, not a printed value.

Tests used:
Col2 = experiment: Cytotoxicity against human Col2 cells; assay type: functional; details: read-out: ED50 (the source's name)
[1] = Cytotoxicity against human U373 cells; assay type: functional, U-373MG ATCC; details: U373 MG, read-out: ED50 (the source's name)
KB = experiment: Cytotoxicity against human KB cells; assay type: functional; details: read-out: ED50 (the source's name)
[2] = Antimitotic activity against rat ASK cells assessed as reversal of astrocyte morphology at 4 ug/ml; assay type: functional
[3] = Antimitotic activity against rat ASK cells assessed as reversal of astrocyte morphology at 0.0064 ug/ml; assay type: functional
Lu1 = experiment: Cytotoxicity against human Lu1 cells; assay type: functional; details: read-out: ED50 (the source's name)
A-431 = experiment: Cytotoxicity against human A431 cells; assay type: functional; details: read-out: ED50 (the source's name)
LNCaP = experiment: Cytotoxicity against human LNCAP cells; assay type: functional; details: read-out: ED50 (the source's name)
SK-MEL-2 = experiment: Cytotoxicity against human SK-MEL-2 cells; assay type: functional; details: read-out: ED50 (the source's name)
[4] = Antimitotic activity against rat ASK cells assessed as reversal of astrocyte morphology at 0.8 ug/ml; assay type: functional
[5] = Cytotoxicity against human BC1 cells; assay type: functional; details: read-out: ED50 (the source's name)
[6] = Antimitotic activity against rat ASK cells assessed as reversal of astrocyte morphology at 0.16 ug/ml; assay type: functional
[7] = Antimitotic activity against rat ASK cells assessed as reversal of astrocyte morphology at 20 ug/ml; assay type: functional
HT = experiment: Cytotoxicity against human HT cells; assay type: functional; details: read-out: ED50 (the source's name)
[8] = Antimitotic activity against rat ASK cells assessed as reversal of astrocyte morphology at 0.032 ug/ml; assay type: functional
[9] = Antimitotic activity against rat ASK cells assessed as reversal of astrocyte morphology at 100 ug/ml; assay type: functional
ZR-75-1 = experiment: Cytotoxicity against human ZR-75-1 cells; assay type: functional; details: read-out: ED50 (the source's name)
Bos taurus [10] = species on record: Bos taurus; experiment: Inhibition of calf brain tubulin polymerization by turbidimetric analysis
[11] = Cytotoxicity against multidrug-resistant human KBV1 cells; assay type: functional; details: KB-V1, read-out: ED50 (the source's name)
Bos taurus [12] = species on record: Bos taurus; experiment: Inhibition of calf thymus tubulin polymerization by turbidimetric analysis
[13] = Antimitotic activity against rat ASK cells assessed as reversal of astrocyte morphology at 0.00128 ug/ml; assay type: functional

COc1cc2c(c(OC)c1OC)-c1cc3c(cc1C(=O)[C@H]1COC(=O)[C@@H]1C2)OCO3
EC50 (Col2): 2.1 µg/mL (≈ 5.09 µM)
EC50 [1]: > 20 µg/mL
EC50 (KB): 1.5 µg/mL (≈ 3.64 µM)
Activity [2]: 100%
Activity [3]: 0%
EC50 (Lu1): 1 µg/mL (≈ 2.42 µM)
EC50 (A-431): > 20 µg/mL
EC50 (LNCaP): 2 µg/mL (≈ 4.85 µM)
EC50 (SK-MEL-2): > 20 µg/mL
Activity [4]: 100%
EC50 [5]: 1.8 µg/mL (≈ 4.36 µM)
Activity [6]: 0%
Activity [7]: 100%
EC50 (HT): 0.7 µg/mL (≈ 1.7 µM)
Activity [8]: 0%
Activity [9]: 100%
EC50 (ZR-75-1): > 20 µg/mL
ED50 (Bos taurus [10]): 68.2 µg/mL (≈ 165 µM)
EC50 [11]: 7.1 µg/mL (≈ 17.2 µM)

COC[C@@H]1Cc2cc3c(cc2-c2c(ccc(OC)c2OC)C[C@@H]1C(=O)OC)OCO3
EC50 (Col2): > 20 µg/mL
EC50 [1]: > 20 µg/mL
EC50 (KB): > 20 µg/mL
Activity [2]: 0%
EC50 (Lu1): > 20 µg/mL
EC50 (A-431): > 20 µg/mL
EC50 (LNCaP): > 20 µg/mL
EC50 (SK-MEL-2): > 20 µg/mL
Activity [4]: 0%
EC50 [5]: > 20 µg/mL
Activity [7]: 0%
EC50 (HT): > 20 µg/mL
Activity [9]: 40%
EC50 (ZR-75-1): > 20 µg/mL
EC50 [11]: > 20 µg/mL
ED50 (Bos taurus [12]): 76.9 µg/mL (≈ 186 µM)

COC[C@@H]1Cc2cc3c(cc2-c2c(c(OC)cc(OC)c2OC)C[C@H]1C(=O)OC)OCO3
EC50 (Col2): 9.6 µg/mL (≈ 21.6 µM)
EC50 [1]: 7.8 µg/mL (≈ 17.5 µM)
EC50 (KB): 9.2 µg/mL (≈ 20.7 µM)
Activity [2]: 0%
EC50 (Lu1): 5.5 µg/mL (≈ 12.4 µM)
EC50 (A-431): 6.7 µg/mL (≈ 15.1 µM)
EC50 (LNCaP): > 20 µg/mL
EC50 (SK-MEL-2): 14.9 µg/mL (≈ 33.5 µM)
EC50 [5]: 17.3 µg/mL (≈ 38.9 µM)
Activity [7]: 100%
EC50 (HT): 11.5 µg/mL (≈ 25.9 µM)
Activity [9]: 100%
EC50 (ZR-75-1): 4.7 µg/mL (≈ 10.6 µM)
EC50 [11]: 0.8 µg/mL (≈ 1.8 µM)
ED50 (Bos taurus [12]): 59.3 µg/mL (≈ 133 µM)

COc1cc2c(c(OC)c1OC)-c1ccc(OC)c(=O)cc1[C@@H](NC(C)=O)CC2 [COLCHICINE]
EC50 (Col2): 0.001 µg/mL (≈ 0.0025 µM)
EC50 [1]: 0.005 µg/mL (≈ 0.0125 µM)
EC50 (KB): 0.02 µg/mL (≈ 0.0501 µM)
Activity [2]: 100%
Activity [3]: 0%
Activity [13]: 0%
EC50 (Lu1): 0.02 µg/mL (≈ 0.0501 µM)
EC50 (A-431): 0.002 µg/mL (≈ 0.00501 µM)
EC50 (LNCaP): 0.06 µg/mL (≈ 0.15 µM)
EC50 (SK-MEL-2): 0.007 µg/mL (≈ 0.0175 µM)
Activity [4]: 70%
EC50 [5]: 0.008 µg/mL (≈ 0.02 µM)
Activity [6]: 0%
Activity [7]: 100%
EC50 (HT): 0.004 µg/mL (≈ 0.01 µM)
Activity [8]: 0%
Activity [9]: 100%
EC50 (ZR-75-1): 0.1 µg/mL (≈ 0.25 µM)
ED50 (Bos taurus [10]): 7.4 µg/mL (≈ 18.5 µM)
EC50 [11]: 3.5 µg/mL (≈ 8.76 µM)

C/C=C(/C)C(=O)O[C@@H]1c2cc3c(cc2-c2c(cc(OC)c(OC)c2OC)C[C@H]2C(=O)OC[C@H]12)OCO3 [EPISTEGANANGIN]
EC50 (Col2): > 20 µg/mL
EC50 [1]: > 20 µg/mL
EC50 (KB): 7.4 µg/mL (≈ 14.9 µM)
Activity [2]: 0%
EC50 (Lu1): 6.9 µg/mL (≈ 13.9 µM)
EC50 (A-431): > 20 µg/mL
EC50 (LNCaP): > 20 µg/mL
EC50 (SK-MEL-2): 20 µg/mL (≈ 40.3 µM)
Activity [4]: 0%
EC50 [5]: 1.1 µg/mL (≈ 2.22 µM)
Activity [7]: 0%
EC50 (HT): 7.4 µg/mL (≈ 14.9 µM)
Activity [9]: 100%
EC50 (ZR-75-1): 13.9 µg/mL (≈ 28 µM)
ED50 (Bos taurus [10]): 78.1 µg/mL (≈ 157 µM)
EC50 [11]: 0.9 µg/mL (≈ 1.81 µM)

COc1cc2c(c(OC)c1OC)-c1cc3c(cc1[C@@H](OC(C)=O)C1COC(=O)[C@H]1C2)OCO3 (stereo not given in full) [STEGANACIN]
EC50 (Col2): 0.4 µg/mL (≈ 0.876 µM)
EC50 [1]: 0.1 µg/mL (≈ 0.219 µM)
EC50 (KB): 0.1 µg/mL (≈ 0.219 µM)
Activity [2]: 100%
EC50 (Lu1): 0.4 µg/mL (≈ 0.876 µM)
EC50 (A-431): 0.2 µg/mL (≈ 0.438 µM)
EC50 (SK-MEL-2): > 20 µg/mL
Activity [4]: 100%
EC50 [5]: 0.6 µg/mL (≈ 1.31 µM)
Activity [6]: 100%
Activity [7]: 100%
EC50 (HT): 0.7 µg/mL (≈ 1.53 µM)
Activity [8]: 0%
Activity [9]: 100%
EC50 (ZR-75-1): 5 µg/mL (≈ 11 µM)
ED50 (Bos taurus [10]): 1.7 µg/mL (≈ 3.72 µM)
EC50 [11]: 0.2 µg/mL (≈ 0.438 µM)
Activity (Bos taurus [12]): Dose-dependent effect

C/C=C(/C)C(=O)O[C@H]1c2cc3c(cc2-c2c(cc(OC)c(OC)c2OC)C[C@H]2C(=O)OC[C@@H]21)OCO3 [STEGANANGIN]
EC50 (Col2): 0.6 µg/mL (≈ 1.21 µM)
EC50 [1]: > 20 µg/mL
EC50 (KB): 0.4 µg/mL (≈ 0.806 µM)
Activity [2]: 100%
Activity [3]: 0%
EC50 (Lu1): 0.4 µg/mL (≈ 0.806 µM)
EC50 (A-431): > 20 µg/mL
EC50 (LNCaP): 0.9 µg/mL (≈ 1.81 µM)
EC50 (SK-MEL-2): 0.7 µg/mL (≈ 1.41 µM)
Activity [4]: 100%
EC50 [5]: 0.7 µg/mL (≈ 1.41 µM)
Activity [6]: 50%
Activity [7]: 100%
EC50 (HT): 0.6 µg/mL (≈ 1.21 µM)
Activity [8]: 0%
Activity [9]: 100%
EC50 (ZR-75-1): 1 µg/mL (≈ 2.01 µM)
ED50 (Bos taurus [10]): 38.1 µg/mL (≈ 76.7 µM)
EC50 [11]: 0.7 µg/mL (≈ 1.41 µM)

COc1cc2c(c(OC)c1OC)C[C@H]1COC(=O)[C@@H]1Cc1c-2cc(OC)c(OC)c1OC [STEGANOLIDE A]
EC50 (Col2): 5.1 µg/mL (≈ 11.5 µM)
EC50 [1]: 3.1 µg/mL (≈ 6.97 µM)
EC50 (KB): 4.9 µg/mL (≈ 11 µM)
Activity [2]: 0%
EC50 (Lu1): 5.5 µg/mL (≈ 12.4 µM)
EC50 (A-431): 5.5 µg/mL (≈ 12.4 µM)
EC50 (LNCaP): 9 µg/mL (≈ 20.2 µM)
EC50 (SK-MEL-2): 9.2 µg/mL (≈ 20.7 µM)
Activity [4]: 0%
EC50 [5]: 8 µg/mL (≈ 18 µM)
Activity [6]: 0%
Activity [7]: 100%
EC50 (HT): 6.5 µg/mL (≈ 14.6 µM)
Activity [8]: 0%
Activity [9]: 100%
EC50 (ZR-75-1): 8.9 µg/mL (≈ 20 µM)
EC50 [11]: 0.8 µg/mL (≈ 1.8 µM)
